Source: PubChem BioAssay (NCI)
Where “and” joins values, the source holds several entries; their conditions need not be identical. Equal values may be shown once.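 Method: 48-hour compound exposure of cells in 96-well plates, five concentrations, linear interpolation of endpoints. Here, GI50 denotes the concentration required for 50% inhibition of growth. Definition used: TGI = concentration required for complete inhibition of growth.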

How the values were obtained:
Experiment in all cases: NCI anticancer screen, dose series, 48 h
DU-145 prostate = test system: DU-145 prostate
HOP-92 NSCLC = test system: HOP-92 NSCLC
MOLT-4 leukemia = test system: MOLT-4 leukemia
OVCAR-3 ovarian = test system: OVCAR-3 ovarian
SK-MEL-28 melanoma = test system: SK-MEL-28 melanoma
SNB-19 CNS = test system: SNB-19 CNS
SNB-75 CNS = test system: SNB-75 CNS
T-47D breast = test system: T-47D breast
TK-10 renal = test system: TK-10 renal
UACC-62 melanoma = test system: UACC-62 melanoma

## C[C@H](OC(=O)/C=C/c1ccc(O)c(O)c1)[C@H](C)OC(=O)/C=C/c1ccc(O)c(O)c1
DU-145 prostate
  TGI: 39.3 µM
HOP-92 NSCLC
  TGI: 38.2 µM
MOLT-4 leukemia
  TGI: > 100 µM
OVCAR-3 ovarian
  TGI: 14.8 µM
SK-MEL-28 melanoma
  TGI: 28.6 µM
SNB-19 CNS
  TGI: 25.6 µM
SNB-75 CNS
  TGI: 39.3 µM
T-47D breast
  TGI: > 100 µM
TK-10 renal
  TGI: 34.2 µM
UACC-62 melanoma
  TGI: 12.6 µM

## CC(=O)Oc1ccc(C2SCc3nc4ccccc4n32)cc1 (stereo unspecified)
DU-145 prostate
  TGI: > 100 µM
HOP-92 NSCLC
  TGI: > 100 µM
MOLT-4 leukemia
  TGI: 46.4 µM
OVCAR-3 ovarian
  TGI: > 100 µM
SK-MEL-28 melanoma
  TGI: > 100 µM
SNB-19 CNS
  TGI: > 100 µM
SNB-75 CNS
  TGI: 77.2 µM
T-47D breast
  TGI: > 100 µM
TK-10 renal
  TGI: > 100 µM
UACC-62 melanoma
  TGI: > 100 µM

## Cc1nc2c(ccc3[nH]c4ccccc4c32)s1
DU-145 prostate
  TGI: > 100 µM
HOP-92 NSCLC
  TGI: 45.4 µM
MOLT-4 leukemia
  TGI: 86.2 µM
OVCAR-3 ovarian
  TGI: 64.1 µM
SK-MEL-28 melanoma
  TGI: 60.3 µM
SNB-19 CNS
  TGI: > 100 µM
SNB-75 CNS
  TGI: > 100 µM
T-47D breast
  TGI: > 100 µM
TK-10 renal
  TGI: 78.1 µM
UACC-62 melanoma
  TGI: 41.2 µM

## O=[N+]([O-])c1cc(C2ON=C(c3ccccc3)N2C23CC4CC(CC(C4)C2)C3)ccc1Cl (stereo unspecified)
DU-145 prostate
  TGI: > 100 µM
HOP-92 NSCLC
  TGI: > 100 µM
MOLT-4 leukemia
  TGI: > 100 µM
OVCAR-3 ovarian
  TGI: > 100 µM
SK-MEL-28 melanoma
  TGI: > 100 µM
SNB-19 CNS
  TGI: > 100 µM
SNB-75 CNS
  TGI: 93.6 µM
T-47D breast
  TGI: > 100 µM
TK-10 renal
  TGI: > 100 µM

## Cc1c(OCc2cccc3ccccc23)ccc2c(=O)cc(S)oc12
DU-145 prostate
  TGI: > 100 µM
HOP-92 NSCLC
  TGI: 67.1 µM
MOLT-4 leukemia
  TGI: > 100 µM
OVCAR-3 ovarian
  TGI: 53.6 µM
SK-MEL-28 melanoma
  TGI: > 100 µM
SNB-19 CNS
  TGI: > 100 µM
SNB-75 CNS
  TGI: > 100 µM
T-47D breast
  TGI: > 100 µM
TK-10 renal
  TGI: > 100 µM
UACC-62 melanoma
  TGI: 73.3 µM

## COc1ccc2oc(=O)c(-c3nc4ccccc4s3)cc2c1
DU-145 prostate
  TGI: > 67.5 µM
HOP-92 NSCLC
  TGI: 58.2 µM
MOLT-4 leukemia
  TGI: > 100 µM
OVCAR-3 ovarian
  TGI: 43.7 µM
SK-MEL-28 melanoma
  TGI: > 100 µM
SNB-19 CNS
  TGI: > 100 µM
SNB-75 CNS
  TGI: 27.5 µM
T-47D breast
  TGI: > 100 µM
TK-10 renal
  TGI: > 100 µM
UACC-62 melanoma
  TGI: > 100 µM

## N#C[C@H](c1nc2ccccc2[nH]1)c1nc2ccccc2nc1Cl
DU-145 prostate
  TGI: 4.09 µM
HOP-92 NSCLC
  TGI: > 75.6 µM
MOLT-4 leukemia
  TGI: 16.8 µM
OVCAR-3 ovarian
  TGI: > 100 µM
SK-MEL-28 melanoma
  TGI: 49 µM
SNB-19 CNS
  TGI: 38.8 µM
SNB-75 CNS
  TGI: 41.1 µM
T-47D breast
  TGI: 12.9 µM
TK-10 renal
  TGI: 37.4 µM
UACC-62 melanoma
  TGI: > 38.8 µM

## COC(=O)c1cc(OCc2cc(OCc3ccc(Br)cc3)cc(OCc3ccc(Br)cc3)c2)cc(OCc2cc(OCc3ccc(Br)cc3)cc(OCc3ccc(Br)cc3)c2)c1
DU-145 prostate
  TGI: > 100 µM
HOP-92 NSCLC
  TGI: > 100 µM
MOLT-4 leukemia
  TGI: > 100 µM
OVCAR-3 ovarian
  TGI: > 100 µM
SK-MEL-28 melanoma
  TGI: > 100 µM
SNB-19 CNS
  TGI: > 100 µM
SNB-75 CNS
  TGI: > 100 µM
T-47D breast
  TGI: > 100 µM
TK-10 renal
  TGI: > 100 µM
UACC-62 melanoma
  TGI: > 100 µM

## Cc1cc(NS(=O)(=O)c2ccc(N=Nc3c(Nc4ccccc4)nn(-c4ccc(S(=O)(=O)Nc5ccncn5)cc4)c3C)cc2)no1
DU-145 prostate
  TGI: > 100 µM
HOP-92 NSCLC
  TGI: > 100 µM
MOLT-4 leukemia
  TGI: > 100 µM
OVCAR-3 ovarian
  TGI: > 100 µM
SK-MEL-28 melanoma
  TGI: > 100 µM
SNB-19 CNS
  TGI: > 100 µM
SNB-75 CNS
  TGI: > 100 µM
T-47D breast
  TGI: > 100 µM
TK-10 renal
  TGI: > 100 µM
UACC-62 melanoma
  TGI: > 100 µM

## O=C1CN2CCN(CC2)CC(=O)Nc2ccc(cc2)S(=O)(=O)c2ccc(cc2)NC(=O)CN2CCN(CC2)CC(=O)Nc2ccc(cc2)S(=O)(=O)c2ccc(cc2)N1
DU-145 prostate
  TGI: > 100 µM
HOP-92 NSCLC
  TGI: > 100 µM
MOLT-4 leukemia
  TGI: > 89 µM
OVCAR-3 ovarian
  TGI: > 100 µM
SK-MEL-28 melanoma
  TGI: > 100 µM
SNB-19 CNS
  TGI: > 100 µM
SNB-75 CNS
  TGI: > 100 µM
T-47D breast
  TGI: > 100 µM
TK-10 renal
  TGI: > 100 µM
UACC-62 melanoma
  TGI: > 67.9 µM

## COc1cc(/C=C2\CCCC3=C2N=C2SC=NN2C3c2cc(OC)c(OC)c(OC)c2)cc(OC)c1OC (stereo unspecified)
DU-145 prostate
  GI50: 3.97 µM
  TGI: > 100 µM
HOP-92 NSCLC
  GI50: 2.98 µM
  TGI: > 100 µM
MOLT-4 leukemia
  GI50: 3.06 µM
OVCAR-3 ovarian
  GI50: 3.02 µM
  TGI: 9.32 µM
SK-MEL-28 melanoma
  GI50: 2.07 µM
  TGI: 5.26 µM
SNB-19 CNS
  GI50: 4.44 µM
  TGI: > 100 µM
SNB-75 CNS
  GI50: 7.52 µM
  TGI: > 100 µM
T-47D breast
  GI50: 3.9 µM
  TGI: > 100 µM
TK-10 renal
  GI50: 4.19 µM
  TGI: 47.6 µM
UACC-62 melanoma
  GI50: 1.68 µM
  TGI: 3.66 µM

## CC1(C)C/C=C\CCC(O)C(O)CCC(C)(C)C1=O (stereo unspecified)
DU-145 prostate
  TGI: > 100 µM
HOP-92 NSCLC
  TGI: > 100 µM
MOLT-4 leukemia
  TGI: > 100 µM
OVCAR-3 ovarian
  TGI: > 100 µM
SK-MEL-28 melanoma
  TGI: > 100 µM
SNB-19 CNS
  TGI: > 100 µM
SNB-75 CNS
  TGI: > 100 µM
T-47D breast
  TGI: > 100 µM
TK-10 renal
  TGI: > 100 µM
UACC-62 melanoma
  TGI: > 100 µM

## O=C1C=C(NCCc2ccc(O)cc2)C(=O)C=C1NCCc1ccc(O)cc1
DU-145 prostate
  TGI: > 100 µM
HOP-92 NSCLC
  TGI: > 100 µM
MOLT-4 leukemia
  TGI: > 100 µM
OVCAR-3 ovarian
  TGI: > 100 µM
SK-MEL-28 melanoma
  TGI: > 100 µM
SNB-19 CNS
  TGI: > 100 µM
SNB-75 CNS
  TGI: 47.5 µM
T-47D breast
  TGI: > 100 µM
TK-10 renal
  TGI: > 100 µM
UACC-62 melanoma
  TGI: > 100 µM

## CN1CCN2CCN(C)CCN(CC1)CC2
DU-145 prostate
  TGI: > 100 µM
HOP-92 NSCLC
  TGI: > 100 µM
MOLT-4 leukemia
  TGI: > 100 µM
OVCAR-3 ovarian
  TGI: > 100 µM
SK-MEL-28 melanoma
  TGI: > 100 µM
SNB-19 CNS
  TGI: > 100 µM
SNB-75 CNS
  TGI: > 100 µM
T-47D breast
  TGI: > 100 µM
TK-10 renal
  TGI: > 100 µM
UACC-62 melanoma
  TGI: > 100 µM

## FC1(F)SC2CCCCCCCCCCC2C1(F)F (stereo unspecified)
DU-145 prostate
  TGI: > 100 µM
HOP-92 NSCLC
  TGI: 51.6 µM
MOLT-4 leukemia
  TGI: > 100 µM
OVCAR-3 ovarian
  TGI: 39.1 µM
SK-MEL-28 melanoma
  TGI: 71 µM
SNB-19 CNS
  TGI: > 100 µM
SNB-75 CNS
  TGI: > 100 µM
T-47D breast
  TGI: > 100 µM
TK-10 renal
  TGI: > 100 µM
UACC-62 melanoma
  TGI: > 100 µM

## COC(=O)/C=C/c1cc(OC)c2c(c1)C(C(=O)OC)C(c1ccc(O)c(OC)c1)O2 (stereo unspecified)
DU-145 prostate
  TGI: > 100 µM and 35.7 µM
HOP-92 NSCLC
  GI50: > 37.2 µM and 12.4 µM and 16.9 µM
  TGI: > 100 µM
MOLT-4 leukemia
  GI50: 5.39 µM and 4.7 µM and 1.94 µM
  TGI: > 100 µM and 16.7 µM
OVCAR-3 ovarian
  GI50: 4.97 µM and 3.89 µM and 2 µM
  TGI: > 27 µM and > 25.6 µM and 19.8 µM
SK-MEL-28 melanoma
  GI50: > 56.3 µM and 18.9 µM and 9.69 µM
  TGI: > 100 µM and > 70.4 µM and 86.7 µM
SNB-19 CNS
  GI50: 4.15 µM and 4.27 µM and 9.01 µM
  TGI: > 100 µM
SNB-75 CNS
  GI50: 0.91 µM
  TGI: 4.36 µM and 6.67 µM and 15.2 µM
T-47D breast
  TGI: > 100 µM and 31.9 µM and > 57.6 µM
TK-10 renal
  GI50: 47.5 µM and 15.6 µM and 15.3 µM
  TGI: > 100 µM
UACC-62 melanoma
  GI50: 2.42 µM and 3.37 µM and 1.57 µM
  TGI: > 56.1 µM and 36.4 µM and 32.9 µM
